The values that follow come from patent publication US8802137B2, “Sustained release of antiinfectives” (Insmed Incorporated, priority 2002, dated 2014).

The conditions of series [1]: mouse, in vivo, po, 15 mg/kg.
The nature of series [2]: Clinical chemical assay (TDX) of aminoglycoside content in tissue of treated infected rats. It is filed as in vivo. The conditions noted are these: Sprague-Dawley, other: intratracheal (IT), 10 mg/rat. Here is the method: […] The clinical chemical assay was performed using a TDX instrument while the bioassay was performed by measuring inhibition zones on agar plates embedded with Bacillus subtilis.

Details of series [3]: species or system rats. The conditions noted are these: rat, in vivo. Here is the method: The binding of aminoglycosides to sputum of CF patients is a concern, particularly if this binding reduces the bioactivity of the antiinfective (Hunt et al., 1995). To determine whether liposomal formulations of amikacin can retain biological activity over a prolonged period of time, normal rats were administered liposomal formulations of amikacin by intratracheal instillation. This was followed by its removal at 2 or 24 hours via a bronchial alveolar lavage (BAL) to determine biological activity. […] Amikacin concentration was determined employing a TDX instrument and biological activity determined using a Mueller Hinton broth dilution assay (Pseudomonas aeruginosa).

A further series concerns rat alveolar macrophages. The conditions noted are these: in vivo.
Another series relates to P. aeruginosa PA01. In words: In vitro release and activity in Slide-A-Lyzer cartridges, CFU after 24 hrs. It is filed as cell-based. The settings on record: amikacin 50 μg/mL, preliminary experiments. The method, then:
An in vitro test of release and activity was performed under conditions similar to the pharmacokinetics in the lung, where it has been previously shown that free antibiotic is cleared on the time scale of a few hours. […] Free drug dialyzes out of the cartridges on the time scale of hours under these conditions. After 24 hrs., the samples were withdrawn from the cartridges and plated to measure CFU.

The nature of series [4]: Bioavailability of amikacin from inhaled liposomal amikacin formulations: lung homogenate levels. The settings on record: CD IGS, rat, in vivo, 5 mg/kg.
Setting [5] is: lung homogenate, homogenized rat lungs following the 14 day experiment, read-out: Clinical Assay.

Like-named read-outs stand apart in the source and are kept apart here.

Excerpt for rat alveolar macrophages: The basal and stimulated functions of rat alveolar macrophages obtained by lavage were studied with and without administration of liposomal amikacin formulations and compared to various controls.

With `O=C(O)c1cn(C2CC2)c2cc(N3CCNCC3)c(F)cc2c1=O` [free ciprofloxacin, ciprofloxacin], the “detectability of drug in the lung over time” value in series [1] is “undetectable in less than two hours”.
On to `NC[C@H]1O[C@H](O[C@H]2[C@H](O)[C@@H](O[C@H]3O[C@H](CO)[C@@H](O)[C@H](N)[C@H]3O)[C@H](N)C[C@@H]2N)[C@H](N)C[C@@H]1O` [Free tobramycin, tobramycin], for which the concentration at 14 day in series [2] (setting [5]) amounted to 1400 ng/mL; in series [2] (rat, kidney, kidneys, following the 14 day experiment, read-out: detectable levels of aminoglycoside in the kidneys) it was 100 ng/mL. For the same compound, in series [3], the “drug in a BAL” value is given as “undetectable”.
As to `NCC[C@H](O)C(=O)N[C@@H]1C[C@H](N)[C@@H](O[C@H]2O[C@H](CN)[C@@H](O)[C@H](O)[C@H]2O)[C@H](O)[C@H]1O[C@H]1O[C@H](CO)[C@@H](O)[C@H](N)[C@H]1O` [Free amikacin, amikacin], in series [2] (setting [5]), the concentration at 14 day stood at 2000 ng/mL. Also, in the series on rat alveolar macrophages, the “inflammatory response in the lungs (nitrates and TNF-α in BALF)” value is given as “did not produce a significant acute or delayed inflammatory response”. Also, the “reduction of CFUs” value with P. aeruginosa PA01 was “only slightly reduced the CFU”. The concentration at 24 h in series [4] is ~500000 ng/g.
